Source: ChEMBL document CHEMBL1821599 (J Med Chem, 2011)
The source made the active and inactive calls. The rule behind the calls is not given here. Where a SMILES comes first, the peptide text is derived from it. Bridges are numbered along the chain shown (N, C = ends). [ ]: non-standard residue; d: D form.

Key:
[1] = molecular target: Somatostatin receptor type 1 (Homo sapiens, UniProt P30872); assay: Displacement of 125I-[LTT]-SRIF-28 from human sst1 receptor in CHO cells after 2 hrs by autoradiography; type: cell-based
[2] = molecular target: Somatostatin receptor type 2 (Homo sapiens, UniProt P30874); assay: Displacement of 125I-[LTT]-SRIF-28 from human sst2 receptor in CCL39 cells after 2 hrs by autoradiography; type: cell-based
[3] = molecular target: T1, Somatostatin receptor type 3 (Homo sapiens, UniProt P32745); assay: Displacement of 125I-[LTT]-SRIF-28 from human sst3 receptor in CCL39 cells after 2 hrs by autoradiography; type: cell-based
[4] = molecular target: Somatostatin receptor type 4 (Homo sapiens, UniProt P31391); assay: Displacement of 125I-[LTT]-SRIF-28 from human sst4 receptor in CCL39 cells after 2 hrs by autoradiography; type: cell-based
[5] = molecular target: Somatostatin receptor type 5 (Homo sapiens, UniProt P35346); assay: Displacement of 125I-[LTT]-SRIF-28 from human sst5 receptor in HEK293 cells after 2 hrs by autoradiography; type: cell-based
[6] = molecular target: T1, Somatostatin receptor type 3; assay: Induction of sst3 receptor internalization in human HEK cells after 30 mins by immunofluorescence microscopy; type: cell-based; settings: HEK293
[7] = molecular target: T1, Somatostatin receptor type 3; assay: Partial agonist activity at human sst3 receptor expressed in CCL39 cells after 5 hrs by luciferase reporter gene assay; type: functional, cell-based
[8] = molecular target: T1, Somatostatin receptor type 3; assay: Partial antagonist activity at human sst3 receptor expressed in CCL39 cells assessed as inhibition of somatostatin-induced luciferase reporter gene expression at 10 uM after 5 hrs; type: functional, cell-based
[9] = molecular target: T1, Somatostatin receptor type 3; assay: Agonist activity at human sst3 receptor expressed in CCL39 cells after 5 hrs by luciferase reporter gene assay; type: functional, cell-based
[10] = molecular target: T1, Somatostatin receptor type 3; assay: Induction of sst3 receptor internalization in human HEK cells at 10 uM after 30 mins by immunofluorescence microscopy; type: cell-based; settings: HEK293
[11] = molecular target: T1, Somatostatin receptor type 3; assay: Inhibition of somatostatin-induced sst3 receptor internalization in human HEK cells at 10 uM after 30 mins by immunofluorescence microscopy; type: cell-based; settings: HEK293

T1 sequence (P32745 whole entry): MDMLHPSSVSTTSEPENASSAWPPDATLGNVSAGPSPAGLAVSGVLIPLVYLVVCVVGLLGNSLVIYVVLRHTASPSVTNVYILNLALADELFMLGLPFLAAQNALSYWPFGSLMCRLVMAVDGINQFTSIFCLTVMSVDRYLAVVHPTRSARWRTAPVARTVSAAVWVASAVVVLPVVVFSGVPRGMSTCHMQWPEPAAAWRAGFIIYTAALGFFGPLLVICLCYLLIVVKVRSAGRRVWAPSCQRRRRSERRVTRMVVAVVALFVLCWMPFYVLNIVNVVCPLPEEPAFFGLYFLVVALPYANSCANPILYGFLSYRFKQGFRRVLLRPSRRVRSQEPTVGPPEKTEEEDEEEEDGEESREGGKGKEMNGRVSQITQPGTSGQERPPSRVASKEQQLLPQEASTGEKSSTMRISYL
Sequence of Somatostatin receptor type 2 (P30874 whole entry): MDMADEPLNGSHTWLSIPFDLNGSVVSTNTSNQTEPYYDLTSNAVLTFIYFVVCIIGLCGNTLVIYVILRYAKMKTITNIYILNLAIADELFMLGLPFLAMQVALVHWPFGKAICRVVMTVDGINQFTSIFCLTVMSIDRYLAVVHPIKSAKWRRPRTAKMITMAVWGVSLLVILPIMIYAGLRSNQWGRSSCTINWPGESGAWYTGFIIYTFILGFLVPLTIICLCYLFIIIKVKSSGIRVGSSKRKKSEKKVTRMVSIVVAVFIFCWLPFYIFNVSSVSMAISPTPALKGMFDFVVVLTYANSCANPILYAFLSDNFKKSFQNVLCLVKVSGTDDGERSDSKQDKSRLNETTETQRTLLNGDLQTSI
Sequence of Somatostatin receptor type 4 (P31391 whole entry): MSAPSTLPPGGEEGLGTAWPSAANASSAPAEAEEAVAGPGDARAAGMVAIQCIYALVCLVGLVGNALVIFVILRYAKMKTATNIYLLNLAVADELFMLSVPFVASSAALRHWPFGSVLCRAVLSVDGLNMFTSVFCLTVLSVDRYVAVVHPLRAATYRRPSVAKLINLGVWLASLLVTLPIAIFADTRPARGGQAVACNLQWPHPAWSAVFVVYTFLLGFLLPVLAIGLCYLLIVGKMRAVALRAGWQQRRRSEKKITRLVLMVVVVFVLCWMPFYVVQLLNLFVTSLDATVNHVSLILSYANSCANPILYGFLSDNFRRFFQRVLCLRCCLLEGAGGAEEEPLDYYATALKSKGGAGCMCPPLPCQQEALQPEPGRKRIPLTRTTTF
Sequence of Somatostatin receptor type 1 (P30872 whole entry): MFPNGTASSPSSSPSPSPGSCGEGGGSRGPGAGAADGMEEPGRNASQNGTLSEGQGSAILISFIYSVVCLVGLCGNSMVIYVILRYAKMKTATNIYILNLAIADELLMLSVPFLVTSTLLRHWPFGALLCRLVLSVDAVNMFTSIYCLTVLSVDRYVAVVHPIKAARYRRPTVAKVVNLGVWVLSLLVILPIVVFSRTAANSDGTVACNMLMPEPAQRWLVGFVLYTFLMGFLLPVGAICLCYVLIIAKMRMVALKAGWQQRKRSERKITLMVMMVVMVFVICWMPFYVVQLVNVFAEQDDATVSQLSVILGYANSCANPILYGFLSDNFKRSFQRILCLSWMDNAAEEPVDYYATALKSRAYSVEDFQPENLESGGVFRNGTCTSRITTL
Sequence of Somatostatin receptor type 5 (P35346 whole entry): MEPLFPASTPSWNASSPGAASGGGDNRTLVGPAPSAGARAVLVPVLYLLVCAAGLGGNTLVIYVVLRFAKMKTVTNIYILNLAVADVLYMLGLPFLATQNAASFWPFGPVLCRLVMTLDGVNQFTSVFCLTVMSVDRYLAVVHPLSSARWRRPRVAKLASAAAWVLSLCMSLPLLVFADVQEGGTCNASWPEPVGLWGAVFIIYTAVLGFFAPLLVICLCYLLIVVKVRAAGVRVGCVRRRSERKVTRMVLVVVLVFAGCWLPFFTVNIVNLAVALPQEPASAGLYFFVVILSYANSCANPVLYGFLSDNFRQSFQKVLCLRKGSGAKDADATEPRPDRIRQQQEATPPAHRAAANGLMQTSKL

| IC50 [1] | IC50 [2] | IC50 [3] | IC50 [4] | IC50 [5] | Activity [6] | EC50 [7] | Activity [8] | EC50 [9] | Activity [10] | Activity [11] | Compound |
| --- | --- | --- | --- | --- | --- | --- | --- | --- | --- | --- | --- |
| > 1000 nM | > 1000 nM | 131 nM | > 1000 nM | > 1000 nM | Active | 315 nM | Active | – | – | – | C[C@H](N)C(=O)NCC(=O)N[C@H]1CSSC[C@@H](C(=O)O)NC(=O)[C@H](CO)NC(=O)[C@H]([C@@H](C)O)NC(=O)[C@H](Cc2ccccc2)NC(=O)[C@H]([C@@H](C)O)NC(=O)[C@H](CCCCN)NC(=O)[C@H](Cc2cn(Cc3ccccc3)cn2)NC(=O)[C@H](Cc2ccccc2)NC(=O)[C@H](Cc2ccccc2)NC(=O)[C@H](CC(N)=O)NC(=O)[C@H](CCCCN)NC1=O |
| 138 nM | 35 nM | 13 nM | 25 nM | 556 nM | Active | – | – | 15.7 nM | – | – | C[C@H](N)C(=O)NCC(=O)N[C@H]1CSSC[C@@H](C(=O)O)NC(=O)[C@H](CO)NC(=O)[C@H]([C@@H](C)O)NC(=O)[C@H](Cc2ccccc2)NC(=O)[C@H]([C@@H](C)O)NC(=O)[C@H](CCCCN)NC(=O)[C@H](Cc2ccc(O)cc2)NC(=O)[C@H](Cc2ccccc2)NC(=O)[C@H](Cc2ccccc2)NC(=O)[C@H](CC(N)=O)NC(=O)[C@H](CCCCN)NC1=O |
| 607 nM | 173 nM | 6.7 nM | 41 nM | 6 nM | Active | – | – | 0.53 nM | – | – | C[C@@H](O)[C@@H]1NC(=O)[C@H](CCCCN)NC(=O)[C@@H](Cc2ccc3ccccc3c2)NC(=O)[C@H](Cc2ccccc2)NC(=O)[C@H](Cc2ccccc2)NC(=O)[C@@H](N)CSSC[C@@H](C(=O)O)NC(=O)[C@H](Cc2ccccc2)NC1=O |
| 140 nM | 4.1 nM | 2 nM | 16 nM | 41 nM | Active | – | – | 0.87 nM | – | – | C[C@H](N)C(=O)NCC(=O)N[C@H]1CSSC[C@@H](C(=O)O)NC(=O)[C@H](CO)NC(=O)[C@H]([C@@H](C)O)NC(=O)[C@H](Cc2ccccc2)NC(=O)[C@H]([C@@H](C)O)NC(=O)[C@H](CCCCN)NC(=O)[C@@H](Cc2ccc(O)cc2)NC(=O)[C@H](Cc2ccccc2)NC(=O)[C@H](Cc2ccccc2)NC(=O)[C@H](CC(N)=O)NC(=O)[C@H](CCCCN)NC1=O |
| > 1000 nM | > 1000 nM | 75 nM | 590 nM | > 1000 nM | inactive | 299 nM | Active | – | inactive | Active | C[C@@H](O)[C@@H]1NC(=O)[C@H](CCCCN)NC(=O)[C@@H](Cc2cn(Cc3ccccc3)cn2)NC(=O)[C@H](Cc2ccccc2)NC(=O)[C@H](Cc2ccccc2)NC(=O)[C@@H](N)CSSC[C@@H](C(=O)O)NC(=O)[C@H](Cc2ccccc2)NC1=O |
| 4.1 nM | 1.6 nM | 1 nM | 12 nM | 2.4 nM | Active | – | – | 0.23 nM | – | – | C[C@H](N)C(=O)NCC(=O)N[C@H]1CSSC[C@@H](C(=O)O)NC(=O)[C@H](CO)NC(=O)[C@H]([C@@H](C)O)NC(=O)[C@H](Cc2ccccc2)NC(=O)[C@H]([C@@H](C)O)NC(=O)[C@H](CCCCN)NC(=O)[C@@H](Cc2ccc3ccccc3c2)NC(=O)[C@H](Cc2ccccc2)NC(=O)[C@H](Cc2ccccc2)NC(=O)[C@H](CC(N)=O)NC(=O)[C@H](CCCCN)NC1=O |
| > 1000 nM | > 1000 nM | 164 nM | > 1000 nM | > 1000 nM | inactive | 164 nM | Active | – | inactive | Active | C[C@@H](O)[C@@H]1NC(=O)[C@H](CCCCN)NC(=O)[C@H](Cc2cn(Cc3ccccc3)cn2)NC(=O)[C@H](Cc2ccccc2)NC(=O)[C@H](Cc2ccccc2)NC(=O)[C@@H](N)CSSC[C@@H](C(=O)O)NC(=O)[C@H](Cc2ccccc2)NC1=O |
| > 1000 nM | 106 nM | 15 nM | > 1000 nM | > 1000 nM | Active | 41 nM | Active | – | – | – | C[C@H](N)C(=O)NCC(=O)N[C@H]1CSSC[C@@H](C(=O)O)NC(=O)[C@H](CO)NC(=O)[C@H]([C@@H](C)O)NC(=O)[C@H](Cc2ccccc2)NC(=O)[C@H]([C@@H](C)O)NC(=O)[C@H](CCCCN)NC(=O)[C@@H](Cc2cn(Cc3ccccc3)cn2)NC(=O)[C@H](Cc2ccccc2)NC(=O)[C@H](Cc2ccccc2)NC(=O)[C@H](CC(N)=O)NC(=O)[C@H](CCCCN)NC1=O |
| 2.7 nM | 15 nM | 1.5 nM | 12 nM | 69 nM | Active | – | – | 0.35 nM | – | – | C[C@H](N)C(=O)NCC(=O)N[C@H]1CSSC[C@@H](C(=O)O)NC(=O)[C@H](CO)NC(=O)[C@H]([C@@H](C)O)NC(=O)[C@H](Cc2ccccc2)NC(=O)[C@H]([C@@H](C)O)NC(=O)[C@H](CCCCN)NC(=O)[C@H](Cc2ccc3ccccc3c2)NC(=O)[C@H](Cc2ccccc2)NC(=O)[C@H](Cc2ccccc2)NC(=O)[C@H](CC(N)=O)NC(=O)[C@H](CCCCN)NC1=O |

| Compound | IC50 [1] | IC50 [2] | IC50 [3] | IC50 [4] | IC50 [5] | Activity [6] | EC50 [7] | Activity [8] | EC50 [9] | Activity [10] | Activity [11] |
| --- | --- | --- | --- | --- | --- | --- | --- | --- | --- | --- | --- |
| C[C@@H](O)[C@@H]1NC(=O)[C@H](CCCCN)NC(=O)[C@H](Cc2c[nH]c3ccccc23)NC(=O)[C@H](Cc2ccccc2)NC(=O)[C@H](Cc2ccccc2)NC(=O)[C@@H](N)CSSC[C@@H](C(=O)O)NC(=O)[C@H](Cc2ccccc2)NC1=O (H-CFFWKTFC-OH; disulfide 1-8) | – | – | – | – | 16 nM | Active | 4.7 nM | – | – | – | – |
| C[C@@H](O)[C@@H]1NC(=O)[C@H](CCCCN)NC(=O)[C@@H](Cc2c[nH]c3ccccc23)NC(=O)[C@H](Cc2ccccc2)NC(=O)[C@H](Cc2ccccc2)NC(=O)[C@@H](N)CSSC[C@@H](C(=O)O)NC(=O)[C@H](Cc2ccccc2)NC1=O (H-CFF[dW]KTFC-OH; disulfide 1-8) | – | – | – | – | 2.6 nM | Active | – | – | 3.33 nM | – | – |
